{"source": "ChEMBL document CHEMBL1201862", "about": "“PubChem BioAssay data set” (2004)", "key": {"Leucine aminopeptidase": {"molecular_target": "T1, Leucine aminopeptidase (Plasmodium falciparum 3D7, UniProt Q8IL11)", "T1 sequence (Q8IL11 whole entry)": "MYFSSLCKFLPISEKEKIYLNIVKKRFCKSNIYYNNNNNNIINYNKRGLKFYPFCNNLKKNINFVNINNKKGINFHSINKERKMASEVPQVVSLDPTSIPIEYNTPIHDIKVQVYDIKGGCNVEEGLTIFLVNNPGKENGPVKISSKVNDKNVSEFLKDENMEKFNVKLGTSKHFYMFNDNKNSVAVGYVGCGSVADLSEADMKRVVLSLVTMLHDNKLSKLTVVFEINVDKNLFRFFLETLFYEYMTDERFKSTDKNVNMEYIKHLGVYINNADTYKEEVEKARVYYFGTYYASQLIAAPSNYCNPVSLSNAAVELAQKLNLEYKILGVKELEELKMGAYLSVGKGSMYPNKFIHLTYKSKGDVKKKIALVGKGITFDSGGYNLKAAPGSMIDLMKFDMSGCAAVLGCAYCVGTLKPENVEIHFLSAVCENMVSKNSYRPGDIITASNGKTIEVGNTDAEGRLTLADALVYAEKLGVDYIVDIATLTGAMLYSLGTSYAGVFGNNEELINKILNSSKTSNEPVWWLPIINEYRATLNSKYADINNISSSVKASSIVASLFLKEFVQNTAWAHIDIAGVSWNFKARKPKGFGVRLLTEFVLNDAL", "assay": "P. falciparum M17LAP inhibitors, primary screen, biochemical, fluorogenic H-Leu-NHMec substrate, 1536-well (AID 1619)", "assay_type": "functional"}, "[1]": {"molecular_target": "T2, Mannose-6-phosphate isomerase (Homo sapiens, UniProt P34949)", "T2 sequence (P34949 whole entry)": "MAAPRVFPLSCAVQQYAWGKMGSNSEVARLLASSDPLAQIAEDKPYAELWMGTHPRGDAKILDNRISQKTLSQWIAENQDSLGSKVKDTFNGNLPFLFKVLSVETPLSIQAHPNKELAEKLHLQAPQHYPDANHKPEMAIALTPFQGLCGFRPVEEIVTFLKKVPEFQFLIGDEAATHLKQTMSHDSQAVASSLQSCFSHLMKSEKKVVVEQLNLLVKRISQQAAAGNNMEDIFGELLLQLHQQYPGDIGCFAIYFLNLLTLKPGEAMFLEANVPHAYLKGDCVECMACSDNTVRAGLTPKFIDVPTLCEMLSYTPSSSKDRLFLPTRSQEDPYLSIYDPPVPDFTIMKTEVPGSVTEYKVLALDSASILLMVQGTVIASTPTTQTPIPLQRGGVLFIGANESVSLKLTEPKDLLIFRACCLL", "assay": "MPI enzyme activity inhibition – biochemical, fluorescence intensity, coupled assay, primary screen (AID 1209)"}, "Cytochrome P450 2C19": {"molecular_target": "Cytochrome P450 2C19 (Homo sapiens, UniProt P33261)", "sequence (P33261 whole entry)": "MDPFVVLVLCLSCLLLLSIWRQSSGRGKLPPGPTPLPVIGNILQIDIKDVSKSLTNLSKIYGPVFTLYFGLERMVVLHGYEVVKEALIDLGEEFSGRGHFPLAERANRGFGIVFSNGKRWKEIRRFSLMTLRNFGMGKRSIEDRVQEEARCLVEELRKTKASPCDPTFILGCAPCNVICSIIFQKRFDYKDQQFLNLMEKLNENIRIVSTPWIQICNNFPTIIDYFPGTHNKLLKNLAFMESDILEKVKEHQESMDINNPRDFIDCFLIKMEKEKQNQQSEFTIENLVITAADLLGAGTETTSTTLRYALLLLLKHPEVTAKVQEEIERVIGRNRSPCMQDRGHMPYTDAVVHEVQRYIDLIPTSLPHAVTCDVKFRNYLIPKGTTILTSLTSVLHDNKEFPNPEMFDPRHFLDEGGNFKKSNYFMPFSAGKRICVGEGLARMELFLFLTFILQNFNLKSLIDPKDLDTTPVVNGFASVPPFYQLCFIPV", "assay": "Cytochrome panel assay with activity outcomes. Panel member name: p450-cyp2c19 Compounds with AC50 equal or less than 10 uM are considered active", "assay_type": "functional", "settings": "read-out: AC50"}, "Cytochrome P450 1A2": {"molecular_target": "T3, Cytochrome P450 1A2 (Homo sapiens, UniProt P05177)", "T3 sequence (P05177 whole entry)": "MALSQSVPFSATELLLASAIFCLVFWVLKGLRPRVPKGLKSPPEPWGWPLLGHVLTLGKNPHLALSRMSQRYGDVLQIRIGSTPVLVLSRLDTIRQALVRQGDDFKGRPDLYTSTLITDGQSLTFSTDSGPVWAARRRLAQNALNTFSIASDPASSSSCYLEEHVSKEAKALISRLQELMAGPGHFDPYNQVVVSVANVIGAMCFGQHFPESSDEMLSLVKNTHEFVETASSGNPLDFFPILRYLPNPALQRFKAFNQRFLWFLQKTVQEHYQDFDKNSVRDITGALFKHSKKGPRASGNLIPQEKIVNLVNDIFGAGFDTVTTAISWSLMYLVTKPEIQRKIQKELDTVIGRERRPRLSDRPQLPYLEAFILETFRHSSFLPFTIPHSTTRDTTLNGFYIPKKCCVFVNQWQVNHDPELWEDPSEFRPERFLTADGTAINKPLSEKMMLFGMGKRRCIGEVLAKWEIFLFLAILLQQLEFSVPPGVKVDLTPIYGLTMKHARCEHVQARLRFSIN"}, "Cytochrome P450 3A4": {"molecular_target": "Cytochrome P450 3A4 (Homo sapiens, UniProt P08684)", "sequence (P08684 whole entry)": "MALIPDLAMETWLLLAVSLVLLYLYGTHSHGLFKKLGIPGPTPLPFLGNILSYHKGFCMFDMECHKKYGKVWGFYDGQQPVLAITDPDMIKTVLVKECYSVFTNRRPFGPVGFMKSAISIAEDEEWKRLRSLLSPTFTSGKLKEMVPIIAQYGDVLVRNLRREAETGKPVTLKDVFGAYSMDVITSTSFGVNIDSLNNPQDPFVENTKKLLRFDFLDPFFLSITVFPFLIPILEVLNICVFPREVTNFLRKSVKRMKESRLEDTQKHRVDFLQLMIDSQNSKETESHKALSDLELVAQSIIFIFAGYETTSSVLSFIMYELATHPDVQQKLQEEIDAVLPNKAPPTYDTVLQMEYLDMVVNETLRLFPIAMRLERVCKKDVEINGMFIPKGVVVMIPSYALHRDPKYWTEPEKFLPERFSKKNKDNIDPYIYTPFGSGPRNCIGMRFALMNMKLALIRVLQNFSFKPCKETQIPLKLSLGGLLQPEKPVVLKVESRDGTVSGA"}, "[2]": {"tested_on": "Streptococcus sp. 'group A'", "assay": "Streptococcus pyogenes SK(-)GAS viability under kanamycin – luminescence, BacTiterGlo, confirmation, counter-screen for streptokinase expression inhibitor project, dose response (AID 1900)", "assay_type": "functional, organism-based"}, "Streptokinase A": {"molecular_target": "T4, Streptokinase A (Streptococcus pyogenes serotype M1, UniProt P10520)", "T4 sequence (P10520 whole entry)": "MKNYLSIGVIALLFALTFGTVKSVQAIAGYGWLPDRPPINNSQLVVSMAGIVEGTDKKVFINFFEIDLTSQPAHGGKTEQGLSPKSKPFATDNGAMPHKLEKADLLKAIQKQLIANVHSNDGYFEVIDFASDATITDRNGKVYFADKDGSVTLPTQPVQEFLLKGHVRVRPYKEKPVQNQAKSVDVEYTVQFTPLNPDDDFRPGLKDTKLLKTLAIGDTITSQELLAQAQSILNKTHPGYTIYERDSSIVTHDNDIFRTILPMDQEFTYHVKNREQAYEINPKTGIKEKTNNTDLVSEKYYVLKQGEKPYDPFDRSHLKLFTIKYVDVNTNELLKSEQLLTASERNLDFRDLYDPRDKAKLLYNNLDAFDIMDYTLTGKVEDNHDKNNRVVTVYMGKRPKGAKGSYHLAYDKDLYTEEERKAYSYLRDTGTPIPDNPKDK", "assay": "viability-normalized secreted streptokinase activity reduction – plasminogen activation absorbance, OD405, dose response (AID 1914);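 note: secreted streptokinase activity via plasminogen activation per viability signal from cell pellet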", "assay_type": "functional, Streptococcus pyogenes M1 GAS"}, "[3]": {"assay": "HPDE-C7 pancreatic duct cell viability loss – fluorescence, HTS (AID 430)", "assay_type": "functional, cell-based", "settings": "Homo sapiens"}, "[4]": {"assay": "viability loss of HPDE-C7K cells – cell-based, fluorescence, HTS, primary screen (AID 431)", "assay_type": "functional", "settings": "Homo sapiens"}, "[5]": {"molecular_target": "T5, Calpain-2 catalytic subunit (Sus scrofa, UniProt P43367)", "T5 sequence (P43367 whole entry)": "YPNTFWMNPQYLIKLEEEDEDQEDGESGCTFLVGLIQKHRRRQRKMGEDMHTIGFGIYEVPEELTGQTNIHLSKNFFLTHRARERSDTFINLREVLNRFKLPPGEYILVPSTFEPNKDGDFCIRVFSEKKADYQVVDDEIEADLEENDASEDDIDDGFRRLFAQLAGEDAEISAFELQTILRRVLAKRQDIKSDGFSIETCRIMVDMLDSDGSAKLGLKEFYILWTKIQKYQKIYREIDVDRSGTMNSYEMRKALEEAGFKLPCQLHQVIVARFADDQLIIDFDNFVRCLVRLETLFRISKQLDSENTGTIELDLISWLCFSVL", "assay": "m-calpain protease blockers, concentration series – biochemical, fluorogenic peptide substrate, dose response (AID 1420)", "assay_type": "functional"}, "Streptococcus": {"tested_on": "Streptococcus", "assay": "GAS UMAA2166 growth inhibition – luminescence, BacTiterGlo, counter-screen for streptokinase expression inhibitor project, dose response (AID 1915);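 note: potency for reduction of bacterial viability or growth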", "assay_type": "functional, organism-based"}, "[6]": {"molecular_target": "T6, Ubiquitin-conjugating enzyme E2 N (Homo sapiens, UniProt P61088)", "T6 sequence (P61088 whole entry)": "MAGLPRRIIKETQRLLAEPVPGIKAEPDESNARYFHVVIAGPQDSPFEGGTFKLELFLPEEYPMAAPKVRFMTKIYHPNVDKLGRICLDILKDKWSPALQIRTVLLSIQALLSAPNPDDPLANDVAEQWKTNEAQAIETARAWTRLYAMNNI", "assay_type": "functional"}, "[7]": {"molecular_target": "Heat shock protein HSP 90-alpha (Homo sapiens, UniProt P07900)", "assay_type": "functional, organism-based"}, "[8]": {"molecular_target": "Disintegrin and metalloproteinase domain-containing protein 17 (Homo sapiens, UniProt P78536)", "sequence (P78536 whole entry, the tested form may be a part)": "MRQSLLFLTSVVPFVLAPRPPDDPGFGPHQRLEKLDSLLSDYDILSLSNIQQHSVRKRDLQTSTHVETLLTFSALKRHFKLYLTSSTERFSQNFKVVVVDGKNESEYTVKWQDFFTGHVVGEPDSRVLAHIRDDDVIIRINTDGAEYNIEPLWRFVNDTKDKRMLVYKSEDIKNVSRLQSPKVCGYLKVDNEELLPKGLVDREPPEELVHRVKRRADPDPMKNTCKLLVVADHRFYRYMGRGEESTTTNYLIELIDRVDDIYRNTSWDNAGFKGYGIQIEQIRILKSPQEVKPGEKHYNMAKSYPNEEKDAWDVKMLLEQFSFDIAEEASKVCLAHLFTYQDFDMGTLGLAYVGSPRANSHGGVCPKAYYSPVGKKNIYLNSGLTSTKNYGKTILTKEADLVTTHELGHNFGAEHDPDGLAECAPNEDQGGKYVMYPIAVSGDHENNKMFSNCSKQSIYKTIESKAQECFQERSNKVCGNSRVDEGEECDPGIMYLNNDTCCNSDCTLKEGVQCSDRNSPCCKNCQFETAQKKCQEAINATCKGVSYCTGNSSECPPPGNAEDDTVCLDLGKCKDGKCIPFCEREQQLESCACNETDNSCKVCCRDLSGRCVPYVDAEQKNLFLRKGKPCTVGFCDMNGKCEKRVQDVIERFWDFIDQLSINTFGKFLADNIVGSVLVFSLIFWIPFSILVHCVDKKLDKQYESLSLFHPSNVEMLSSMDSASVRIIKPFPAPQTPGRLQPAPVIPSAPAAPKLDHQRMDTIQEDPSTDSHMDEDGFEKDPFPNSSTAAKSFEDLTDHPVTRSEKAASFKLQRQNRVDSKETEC", "assay": "inhibition of ADAM17 substrate cleavage – biochemical, quenched FRET substrate, counter-screen for ADAM10 exosite inhibitor project, dose response (AID 743253)"}, "[9]": {"molecular_target": "Epstein-Barr nuclear antigen 1 (Epstein-Barr virus (strain B95-8) (HHV-4) (Human herpesvirus 4), UniProt P03211)", "sequence (P03211 whole entry)": "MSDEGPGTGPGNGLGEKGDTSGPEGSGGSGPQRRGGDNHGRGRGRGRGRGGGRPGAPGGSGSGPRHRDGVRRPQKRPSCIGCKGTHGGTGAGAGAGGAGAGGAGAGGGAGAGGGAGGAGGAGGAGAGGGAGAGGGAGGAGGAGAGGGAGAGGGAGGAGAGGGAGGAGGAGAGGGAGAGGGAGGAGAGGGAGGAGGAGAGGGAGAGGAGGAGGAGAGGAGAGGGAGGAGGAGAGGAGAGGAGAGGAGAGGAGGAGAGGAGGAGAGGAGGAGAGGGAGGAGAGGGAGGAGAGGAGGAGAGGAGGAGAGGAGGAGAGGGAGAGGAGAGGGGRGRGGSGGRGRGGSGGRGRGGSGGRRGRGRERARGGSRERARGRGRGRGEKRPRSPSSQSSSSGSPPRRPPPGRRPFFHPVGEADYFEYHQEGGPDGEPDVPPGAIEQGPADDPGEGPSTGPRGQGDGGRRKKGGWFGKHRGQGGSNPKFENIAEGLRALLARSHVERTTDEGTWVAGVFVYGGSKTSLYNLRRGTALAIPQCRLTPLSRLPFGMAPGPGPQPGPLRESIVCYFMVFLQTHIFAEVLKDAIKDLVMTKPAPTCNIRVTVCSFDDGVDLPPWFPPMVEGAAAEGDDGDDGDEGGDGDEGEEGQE", "assay": "inhibition of EBV nuclear antigen 1 DNA binding – biochemical, fluorescence polarization, 1536-well, dose response (AID 2381);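 note: fluorescence polarization of a Cy5 DNA probe bound by EBNA-1 protein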", "design": "species or system human gammaherpesvirus 4"}, "[10]": {"molecular_target": "Lytic switch protein BZLF1 (Epstein-Barr virus (strain B95-8) (HHV-4) (Human herpesvirus 4), UniProt P03206)", "sequence (P03206 whole entry)": "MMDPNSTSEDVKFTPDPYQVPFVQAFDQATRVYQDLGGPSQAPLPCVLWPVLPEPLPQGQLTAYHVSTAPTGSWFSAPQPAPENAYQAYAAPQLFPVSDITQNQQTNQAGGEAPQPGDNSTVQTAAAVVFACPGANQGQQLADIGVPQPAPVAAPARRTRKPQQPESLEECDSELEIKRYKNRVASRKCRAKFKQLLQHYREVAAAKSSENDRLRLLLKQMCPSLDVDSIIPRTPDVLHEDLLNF", "assay": "inhibition of BZLF1 ZTA DNA binding – biochemical, fluorescence polarization, Epstein-Barr virus, 1536-well, counter-screen for EBNA-1 inhibitor project, dose response (AID 2377);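 note: fluorescence polarization of Cy5-labelled ZRE DNA probe bound by purified Zta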", "design": "species or system human gammaherpesvirus 4"}, "Cytochrome P450 2C9": {"molecular_target": "Cytochrome P450 2C9 (Homo sapiens, UniProt P11712)", "sequence (P11712 whole entry)": "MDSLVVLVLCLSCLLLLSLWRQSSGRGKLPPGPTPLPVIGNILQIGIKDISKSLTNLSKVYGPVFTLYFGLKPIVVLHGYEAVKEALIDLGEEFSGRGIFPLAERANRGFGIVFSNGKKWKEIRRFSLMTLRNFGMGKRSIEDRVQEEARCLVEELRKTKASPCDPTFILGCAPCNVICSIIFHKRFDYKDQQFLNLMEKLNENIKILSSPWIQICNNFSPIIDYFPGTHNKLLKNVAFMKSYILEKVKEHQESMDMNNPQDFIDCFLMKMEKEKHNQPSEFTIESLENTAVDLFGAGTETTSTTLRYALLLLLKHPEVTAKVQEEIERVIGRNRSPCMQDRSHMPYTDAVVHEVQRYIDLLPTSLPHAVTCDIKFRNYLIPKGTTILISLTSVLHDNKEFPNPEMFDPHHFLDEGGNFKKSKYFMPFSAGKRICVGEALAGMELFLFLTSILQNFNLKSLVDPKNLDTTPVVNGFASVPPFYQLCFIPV"}, "[11]": {"assay": "mitochondrial function rescue without frataxin homolog – Friedreich's ataxia, plus single-dose screen, dose response (AID 1465);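 note: yeast depleted of Yfh1p frataxin homolog grown on glycerol needing respiration; WST-1 tetrazolium dye reduction as measure of cellular dehydrogenase metabolic activity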", "assay_type": "functional"}, "[12]": {"assay": "Luminescence Cell-Based Dose Retest to Confirm Inhibitors of Cancer Stem Cells. [Related pubchem assays (depositor defined):AID2717, AID2721]", "assay_type": "functional", "settings": "Homo sapiens"}, "Nonstructural protein 1": {"molecular_target": "Nonstructural protein 1 (Influenza A virus, UniProt Q194T2)", "sequence (Q194T2 whole entry)": "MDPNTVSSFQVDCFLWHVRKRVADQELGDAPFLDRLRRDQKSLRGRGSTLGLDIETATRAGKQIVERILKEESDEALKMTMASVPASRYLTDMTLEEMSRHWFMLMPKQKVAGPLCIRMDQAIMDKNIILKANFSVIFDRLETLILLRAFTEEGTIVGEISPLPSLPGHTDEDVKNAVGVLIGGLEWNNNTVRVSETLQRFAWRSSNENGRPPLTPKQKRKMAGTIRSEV", "assay_type": "functional, Influenza A virus (A/California/07/2009(H1N1))"}}, "note": "Activity calls are given as the source filed them.", "data": [{"smiles": "CCCCC(=O)NNC(=S)NC(=O)c1cccc([N+](=O)[O-])c1", "values": [{"measurement": "IC50", "setting": "Leucine aminopeptidase", "value": "49.1 µM (active)"}, {"measurement": "IC50", "setting": "[1]", "value": "> 50 µM (not active)"}, {"measurement": "AC50", "setting": "Cytochrome P450 2C19", "value": "15.8 µM (inconclusive)"}, {"measurement": "AC50", "setting": "Cytochrome P450 1A2", "value": "22.4 µM (inconclusive)"}, {"measurement": "AC50", "setting": "Cytochrome P450 3A4", "value": "inconclusive"}]}, {"smiles": "COc1ccccc1CNC(=O)C1CCN(S(=O)(=O)c2cccc3nonc23)CC1", "values": [{"measurement": "IC50", "setting": "cells", "value": "3.4 µM (active)"}]}, {"smiles": "C=C(C)COc1ccc(-c2n[nH]cc2Oc2cccc(OC)c2)c(O)c1", "values": [{"measurement": "EC50", "setting": "[2]", "value": "8.18 µM (active)"}, {"measurement": "EC50", "setting": "Streptokinase A", "value": "> 150 µM (not active)"}, {"measurement": "EC50", "setting": "[3]", "value": "8.77 µM (active)"}, {"measurement": "EC50", "setting": "[4]", "value": "7.54 µM (active)"}, {"measurement": "IC50", "setting": "[5]", "value": "7.92 µM (not active)"}, {"measurement": "EC50", "setting": "Streptococcus", "value": "10 µM (active)"}, {"measurement": "IC50", "setting": "[6]", "value": "> 20 µM (inactive)"}, {"measurement": "AC50", "setting": "[7]", "value": "7.54 µM (active)"}, {"measurement": "IC50", "setting": "[8]", "value": "> 69.5 µM (inactive)"}]}, {"smiles": "NS(=O)(=O)c1ccc(NC(=S)NC(=O)c2ccc3c(c2)OCO3)cc1", "values": [{"measurement": "IC50", "setting": "[9]", "value": "19.5 µM (not active)"}, {"measurement": "IC50", "setting": "[10]", "value": "33.3 µM (not active)"}]}, {"smiles": "CCc1nnc(NC(=O)CSc2nc3cc4c(cc3cc2C)OCCO4)s1", "values": [{"measurement": "IC50", "setting": "[9]", "value": "5.82 µM (active)"}, {"measurement": "IC50", "setting": "[10]", "value": "> 111 µM (not active)"}, {"measurement": "AC50", "setting": "Cytochrome P450 2C19", "value": "6.31 µM (inconclusive)"}, {"measurement": "AC50", "setting": "Cytochrome P450 1A2", "value": "1.58 µM (inconclusive)"}, {"measurement": "AC50", "setting": "Cytochrome P450 2C9", "value": "0.398 µM (inconclusive)"}]}, {"smiles": "CC(=O)NC(c1ccccc1)c1cc([N+](=O)[O-])c2cccnc2c1O", "note": "(stereo not given)", "values": [{"measurement": "EC50", "setting": "[11]", "value": "> 100 µM (active)"}, {"measurement": "AC50", "setting": "[12]", "value": "1.69 µM (active)"}, {"measurement": "IC50", "setting": "Nonstructural protein 1", "value": "5.52 µM (active)"}]}]}
